{"source": "patent US12590954B2", "about": "“Neural stem cell-induced differential medium and induction differentiation method” (IREGENE THERAPEUTICS, CO., LTD., priority 2020, dated 2026)", "key": {"[1]": {"system": "Human pluripotent stem cells", "experiment": "CyQuant quantitative detection of cell viability during induction", "type": "cell-based", "experimental": "The Cyquant assay was used to perform the quantitative detection of cell viability, thus investigating the effect of LY2157299 on the physiological state of the cells during long-term culture of the cells; Among them, the LSB method was used as the control group. 96-well light-tight cell culture plates were coated; after the coating was complete, cells were seeded separately at 5×10^4 cell number per well and three sets of parallel replicates were set (the average of three sets was calculated as data) to repeat the procedure of example 2.1. Wherein, the culture procedures described previously were incubated at 37° C. with 5% CO2. Samples were taken on days 1, 5, 10, 15 and 20 for cell viability assay using CyQuant Kit (Invitrogen, cat. No: X12223). The aforementioned assay was operated according to the instructions with a Spectramax i3 Multi-Mode Microplate Reader (VWR, model number: ID3-STD) for data reading."}, "[2]": {"experiment": "Freezing point osmometer: osmolality of the culture system", "type": "physicochemical", "experimental": "A fully automated freezing point osmometer (FM-8P, Shanghai Yida Instruments Co., Ltd.) was used to detect the effects of different concentrations of sodium chloride on the osmolality of the culture system, and the specific operations were enrolled in the product instructions (FM-8P, Shanghai Vida Instruments Co., Ltd.). The test results are detailed in FIG. 2a. […] However, when the concentration reached […], the osmolality of the culture system already exceeded the cell culture limit of 320 mOsm/kg."}, "[3]": {"system": "major histocompatibility complex (MHC) genes", "experiment": "Q-PCR detection of MHC genes of induced neural stem cells", "type": "cell-based", "conditions": "compared with human pluripotent stem cells", "from_the_text": "The major histocompatibility complex (MHC) genes of neural stem cells induced by LY2157299 was detected by Q-PCR method, and pluripotent stem cells (iPS) were used as control."}, "HLA-DR": {"system": "HLA-DR", "experiment": "Flow cytometry detection of HLA-DR antigens of induced neural stem cells", "type": "cell-based, human", "experimental": "The HLA-DR antigens of neural stem cells induced by LY2157299 were detected by flow cytometry. HLA-DR is an MHC class II molecule whose expression is critical for the antigen-presenting function of cells and plays a key role in adoptive immune responses. The induced neural stem cells obtained in Example 2 were digested with EDTA, washed with DPBS, centrifuged to remove the supernatant, and 10^6 Cells were resuspended in 100 μL of diluted primary antibody (CD45 PerCP, Abeam, Cat. No. ab157309; HLA-DR FITC, CST, Cat. No. 54126), incubated on ice for 1 hour in the dark, centrifuged to remove supernatant, and cells were resuspended in 500 μL of antibody dilution buffer (CST) and analyzed on a flow cytometer. Samples incubated without primary antibody were used as controls. The results are shown in FIG. 7, FIG. 7a is a negative control, FIG. 7b is the HLA-DR detection result of the neural stem cells obtained by LY2157299 induction."}, "[4]": {"system": "human induced pluripotent stem cells", "experiment": "Brain organoid formation and diameter", "type": "cell-based", "conditions": "12.5 μM LY2157299", "experimental": "Organoid culture was performed with human induced pluripotent stem cells. Organoid inducing medium was formulated as follows: NouvNeu basal medium supplemented with 12.5 μM […]. Induced pluripotent stem cells were digested to single cells by Accutase, seeded in 15-bottom-ultra-low attachment 96-well plates at a ratio of 9000 cells/[…] of brain organoid inducing medium per well. 10 μM ROCK inhibitor Y-27632 (Selleck, 51049) was added, and the cells were placed in a 37° C., 5% carbon dioxide cell incubator for 24 hours (Panasonic, model: MCO-18AC). Y-27632-free fresh organoid inducing medium was changed the following day until day 10. Day 10 the organoids were transferred to ultra-low-attachment 6-well plates and the medium was changed to NouvNeu001 basal medium supplemented with 2% B27 cell culture additive. The culture was conducted at 37° C. in a 5% CO2 cell culture incubator on a horizontal rotator at 80 rpm until day 120.\nThe control experiment was carried out according to the published method (Clair B et. al, Nat Methods. 2019, November; 16 (11): 1169-1175). N2B27 was used as the basic medium for organ like culture. […]\nOrganoids were photographed by Leica Dmi8. The brain organoids were photographed and their diameters were measured. […]"}, "neural stem cells [5]": {"system": "neural stem cells", "experiment": "Directed differentiation of induced neural stem cells into neurons (immunofluorescence)", "type": "cell-based, human", "experimental": "The neural stem cells obtained by the LY inducing method in Example 2 were subjected to directed differentiation in NouvNeu001 basal medium. For neuronal differentiation, use 50 μg/mL polylysine (SIGMA ALDRICH, Cat. No.: P6407) to coat a 6-well culture plate, and place the plate in a 37° C. incubator and incubate for more than 3 hours until cells are seeded.\nThe neural stem cells obtained in example 2 were seeded at a density of 1×10^5 the ratio per flask was inoculated in T25 flasks, and 3 μM CHIR99021 (Selleck, Cat. No.: S2924), 10 μM SU5402 (Tocris, Cat. No.: 3300/1), 10 μM DAPT (Selleck, Cat. No.: 52215) were added to NouvNeu001 basal medium. Fresh medium was replaced every 3 days until day 21. The above cultures were incubated at 37° C. with 5% CO2.\nThe neural stem cells obtained in example 2 were seeded at a density of 1×10^5 the ratio per flask was inoculated in T25 flasks, and 1 μM Purmorphamine Sellek, Cat. No.: S3042) and […] TGF-β3 (Novoprotein, Cat. No.: CJ44) were added to NouvNeu001 basal medium to culture neural stem cells. Fresh medium was replaced every 3 days until day 30. The above cultures were incubated at 37° C. with 5% CO2.\nThe neural stem cells obtained in example 2 were seeded at a density of 1×10^5 the ratio per flask was inoculated in T25 flasks, and 0.5 μM retinyl acetate (SIGMA ALDRICH, Cat. No.: R7782) was added to NouvNeu001 basal medium. Fresh medium was replaced every 3 days until day 21. The above cultures were incubated at 37° C. with 5% CO2.\nAfter induction and differentiation, the cells were harvested and identified by immunofluorescence staining: cells were fixed with 4% paraformaldehyde at room temperature for 40 minutes, washed twice with DPBS buffer; then permeabilized with 0.1% Triton X-100 for 5 minutes, and buffered with DPBS The cells were then washed twice with DPBS buffer containing 10% horse serum and 0.1% Triton X-100 at 4° C. overnight; the cells were washed with DPBS buffer and then washed with 2% horse serum and 0:1% Triton X-100. […]"}, "neural stem cells [6]": {"system": "neural stem cells", "experiment": "Q-PCR of marker genes during induction from pluripotent stem cells to neural stem cells", "type": "cell-based, human", "conditions": "different concentrations of LY2157299", "experimental": "Transcriptional changes of different marker genes during induction from pluripotent stem cells to neural stem cells were detected by using Q-PCR. The induced pluripotent stem cells used in this example are neural stem cells derived by LY inducing method and LSB inducing method, respectively. Neural stem cells were prepared as described previously using Rneasy Mini or Micro Kit (QIAGEN) for total RNA extraction, in which […] RNA was used to synthesize cDNA with superscript III First-Strand Synthesis System (Invitrogen).\nSYBR Premix Ex Taq (TaKaRa) and Thermal Cycler Dice Real Time System TaKaRa) were used to perform labeling and reactions for Quantitative PCR, with beta-Actin as internal reference. All the above data were analyzed with the delta-Ct method. Each set of trials was tested using three sets of replicates, and variance statistics were performed.\n(§1) From the above results, it is known that the differentiation is not complete under the low concentration condition, and many different types of cells can be seen. However, neural stem cells obtained in high concentration condition are easily differentiated and cell stress appears."}, "[7]": {"system": "Human pluripotent stem cells", "experiment": "Chemical induction of neural stem cells (neural rosette formation, cell morphology)", "type": "cell-based", "from_the_text": "Human pluripotent stem cells include embryonic pluripotent stem cells, such as the H19 cell line and human induced pluripotent stem cells. Wherein, the human induced pluripotent stem cells used in the present invention are obtained from the reprogramming of CD34^+ cells, which refers to “reprogramming culture medium and reprogramming induced pluripotent stem cell culture method” (the method in the patent ZL201910050800.7).\nHuman pluripotent stem cells are used to coat T25 cell culture flasks with Matrigel ([…] Technologies), and then placed in a 37° C. incubator for more than one hour after plating. Follow 1×10^6 Cells were seeded in T25 flasks for expansion and passage.\nFor neural induction, use 50 μg/mL poly-lysine (SIGMA, Cat. No.: P6407) to coat a 6-well culture plate, and incubate at 37° C. for more than 3 hours after plating; then use 5 μg/mL Laminin (SIGMA ALDRICH, Cat. No.: 12020) for further coat, and then place in a 37° C. incubator to incubate for more than 3 hours. When pluripotent stem cells reached 70% coverage, they were digested with EDTA at 37° C. for 5 min, and DMEM was used to stop cell digestion. Cells are washed and centrifuged at 2×10^5 the proportions of each flask and are re-seeded in T25 plates. Neural induction is performed using the medium of the present invention in combination with the neural inducing compound, and the medium is changed every day until the neural stem cell rosette is formed. […] Therefore, the single-molecule inducing method provided by this method can induce pluripotent stem cells to form neural rosette structures more efficiently and uniformly.\nas §1"}}, "note": "“Also recorded” adds a separate entry of the source.", "data": [{"compound": "recombinant insulin: component of the basal medium", "values": [{"measurement": "rate of cell proliferation versus concentration (CyQuant)", "setting": "[1]; different concentrations, long-term culture", "result": "positively correlated with the rate of cell proliferation"}]}, {"compound": "[Cl-].[Na+]", "note": "[sodium chloride]", "values": [{"measurement": "osmotic pressure of the culture system versus concentration", "setting": "[2]; different concentrations of sodium chloride", "result": "linear increase"}, {"measurement": "osmolality of the culture system", "setting": "[2]; sodium chloride concentration 1 μg/mL", "result": "> 320", "unit": "mOsm/kg"}]}, {"compound": "Cc1cccc(-c2nn3c(c2-c2ccnc4ccc(C(N)=O)cc24)CCC3)n1", "note": "[LY2157299, 4-(2-(6-methylpyridin-2-yl)-5,6-dihydro-4h-pyrrolo[1,2-b]pyrazol-3-yl) quinoline-6-carboxamide]", "values": [{"measurement": "expression of MHC associated genes in induced neural stem cells", "setting": "[3]", "result": "significantly lower than human induced pluripotent stem cells; also recorded: extremely low levels"}, {"measurement": "number of neural cells induced (CyQuant)", "setting": "[1]; samples on days 1, 5, 10, 15 and 20, LSB method as control", "result": "more number of neural cells compared with LSB method"}, {"measurement": "HLA-DR antigen expression of induced neural stem cells", "setting": "HLA-DR", "result": "do not express HLA-DR; also recorded: negative"}, {"measurement": "generation of cerebral organoids", "setting": "[4]", "result": "can induce the generation of cerebral organoids"}, {"measurement": "nociceptor neuron differentiation of induced neural stem cells: marker expression", "setting": "neural stem cells [5]; CHIR99021, SU5402, DAPT in NouvNeu001 until day 21", "result": "able to express the nociceptor neuronal markers SCN11A and Nestin"}, {"measurement": "dopaminergic neuron differentiation of induced neural stem cells: marker expression", "setting": "neural stem cells [5]; Purmorphamine and TGF-β3 in NouvNeu001 until day 30", "result": "could express the mature dopaminergic neuron specific markers Tyrosine Hydroxylase (TH) and Pitx3"}, {"measurement": "photoreceptor neuron differentiation of induced neural stem cells: marker expression", "setting": "neural stem cells [5]; retinyl acetate in NouvNeu001 until day 21", "result": "could express the photoreceptor neuronal markers OPSIN and CRX"}, {"measurement": "Pax6 expression versus concentration (Q-PCR)", "setting": "neural stem cells [6]", "result": "positively correlated with Pax6 expression"}, {"measurement": "apoptosis gene CASP3 versus concentration (Q-PCR)", "setting": "neural stem cells [6]", "result": "positively correlated with apoptosis"}, {"measurement": "cell population obtained by chemical induction", "setting": "[7]; 12.5 μM LY2157299", "result": "a uniform cell population"}, {"measurement": "cell population obtained by chemical induction", "setting": "[7]; 25 μM LY2157299", "result": "a mixed population of neural cells was obtained"}, {"measurement": "cell stress on chemical induction", "setting": "[7]; 25 μM LY2157299", "result": "cells showed signs of stress with intracellular vacuoles"}, {"measurement": "cell population obtained by chemical induction", "setting": "[7]; 20 nm LY2157299", "result": "a mixed population of cells including neural cells was obtained"}]}]}
